Data reported in patent US6358885B1, “Substituted phenylheterocyclic herbicides” (Mississippi State University, priority 1992, dated 2002).

Tests used:
cotton = experiment: Test B preemergence/postemergence greenhouse plant response rating 0 to 10; format: in vivo, Gossypium hirsutum; conditions: 0 to 10 scale
Summary of the method: (§1)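 Test chemicals, dissolved in a non-phytotoxic solvent, were applied to soil at planting and, at the same time, over foliage of seedlings at the one to four leaf stage.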

downy brome = experiment: Test C preemergence/postemergence greenhouse plant response rating 0 to 100; format: in vivo, Bromus tectorum; conditions: for Plant response rating Downy Brome: 62 g/ha, 0 to 100 scale
Summary of the method: (§2)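 Compounds in non-phytotoxic solvent went onto sandy loam before emergence (seeded one day earlier) or onto plants at the one-to-four leaf stage. Duck salad was treated via flood water (~2.5 cm, maintained) over silt loam.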

wild buckwheat = experiment: as above; format: in vivo, Polygonum convolvulus
Summary of the method: as §2

barley = experiment: Test B preemergence/postemergence greenhouse plant response rating 0 to 10; format: in vivo, Hordeum vulgare; conditions: 0 to 10 scale
Summary of the method: as §1

bedstraw = experiment: as above; format: in vivo, Galium aparine; conditions: 0 to 10 scale
Summary of the method: as §1

wheat [1] = experiment: as above; format: in vivo, Triticum aestivum; conditions: 0 to 10 scale
Summary of the method: as §1

wild oat [2] = experiment: as above; format: in vivo, Avena fatua; conditions: 0 to 10 scale
Summary of the method: as §1

barnyardgrass = experiment: Test C flood test plant response rating 0 to 100; format: in vivo, Echinochloa crus-galli
Summary of the method: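 Compounds in non-phytotoxic solvent applied preemergence to sandy loam one day after planting, postemergence at the 1–4 leaf stage, or to ~2.5 cm floodwater over silt loam.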

blackgrass = experiment: Test B preemergence/postemergence greenhouse plant response rating 0 to 10; format: in vivo, Alopecurus myosuroides; conditions: 0 to 10 scale
Summary of the method: as §1

sorghum [3] = experiment: as above; format: in vivo, Sorghum bicolor; conditions: 0 to 10 scale
Summary of the method: as §1

rape = experiment: Test C preemergence/postemergence greenhouse plant response rating 0 to 100; format: in vivo, Brassica napus; conditions: for Plant response rating, Rape: 62 g/ha, 0 to 100 scale
Summary of the method: as §2

sugar beet = experiment: Test B preemergence/postemergence greenhouse plant response rating 0 to 10; format: in vivo, Beta vulgaris; conditions: 0 to 10 scale
Summary of the method: as §1

crabgrass = experiment: Test C preemergence/postemergence greenhouse plant response rating 0 to 100; format: in vivo, Digitaria sanguinalis; conditions: for Plant response rating, Crabgrass: 62 g/ha, 0 to 100 scale
Summary of the method: as §2

lambsquarters = experiment: Test B preemergence/postemergence greenhouse plant response rating 0 to 10; format: in vivo, Chenopodium album; conditions: 0 to 10 scale
Summary of the method: as §1

wheat [4] = experiment: Test C preemergence/postemergence greenhouse plant response rating 0 to 100; format: in vivo, Triticum aestivum
Summary of the method: as §2

wild oat [5] = experiment: as above; format: in vivo, Avena fatua
Summary of the method: as §2

ryegrass = experiment: as above; format: in vivo, Lolium multiflorum; conditions: for Plant response rating Ryegrass: 62 g/ha, 0 to 100 scale
Summary of the method: as §2

sorghum [6] = experiment: as above; format: in vivo, Sorghum bicolor
Summary of the method: as §2

[7] = POSTEMERGENCE, 62 g/ha, 0 to 100 scale

## CCN1C(=O)COc2cc(F)c(-c3nn4c(c3Cl)CCCC4)cc21 [Compound 54]
cotton; POSTEMERGENCE, Rate 10 g/ha
  Plant response rating, Cotton: 10
cotton; POSTEMERGENCE, Rate 50 g/ha
  Plant response rating, Cotton: 10
cotton; PREEMERGENCE, Rate 10 g/ha
  Plant response rating, Cotton: 1
cotton; PREEMERGENCE, Rate 50 g/ha
  Plant response rating, Cotton: 2
Downy brome; POSTEMERGENCE
  Plant response rating Downy Brome: 60
Downy brome; POSTEMERGENCE, Rate 1 g/ha
  Plant response rating (0 to 100), Downy Brome: 10
Downy brome; POSTEMERGENCE, Rate 4 g/ha
  Plant response rating (0 to 100), Downy Brome: 30
Downy brome; PREEMERGENCE
  Plant response rating Downy Brome: 30
Downy brome; PREEMERGENCE, Rate 1 g/ha
  Plant response rating (0 to 100), Downy Brome: 0
Downy brome; PREEMERGENCE, Rate 4 g/ha
  Plant response rating (0 to 100), Downy Brome: 0
Downy brome; Rate 16 g/ha, POSTEMERGENCE
  Plant response rating (0 to 100), Downy Brome: 50
Downy brome; Rate 16 g/ha, PREEMERGENCE
  Plant response rating (0 to 100), Downy Brome: 20
Wild buckwheat; [7]
  Plant response rating, Wild buckwheat: 100
Wild buckwheat; POSTEMERGENCE, Rate 1 g/ha
  Plant response rating (0 to 100), Wild buckwheat: 100
Wild buckwheat; POSTEMERGENCE, Rate 4 g/ha
  Plant response rating (0 to 100), Wild buckwheat: 100
Wild buckwheat; PREEMERGENCE, Rate 1 g/ha
  Plant response rating (0 to 100), Wild buckwheat: 0
Wild buckwheat; PREEMERGENCE, Rate 4 g/ha
  Plant response rating (0 to 100), Wild buckwheat: 0
Wild buckwheat; Rate 16 g/ha, POSTEMERGENCE
  Plant response rating (0 to 100), Wild buckwheat: 100
Wild buckwheat; Rate 16 g/ha, PREEMERGENCE
  Plant response rating (0 to 100), Wild buckwheat: 100
barley; POSTEMERGENCE, Rate 10 g/ha
  Plant response rating, Barley: 4
barley; POSTEMERGENCE, Rate 50 g/ha
  Plant response rating, Barley: 4
barley; PREEMERGENCE, Rate 10 g/ha
  Plant response rating, Barley: 0
barley; PREEMERGENCE, Rate 50 g/ha
  Plant response rating, Barley: 2
bedstraw; POSTEMERGENCE, Rate 10 g/ha
  Plant response rating, Bedstraw: 9
bedstraw; POSTEMERGENCE, Rate 50 g/ha
  Plant response rating, Bedstraw: 9
bedstraw; PREEMERGENCE, Rate 10 g/ha
  Plant response rating, Bedstraw: 8
bedstraw; PREEMERGENCE, Rate 50 g/ha
  Plant response rating, Bedstraw: 9
Wheat [1]; POSTEMERGENCE, Rate 10 g/ha
  Plant response rating, Wheat: 6
Wheat [1]; POSTEMERGENCE, Rate 50 g/ha
  Plant response rating, Wheat: 6
Wheat [1]; PREEMERGENCE, Rate 50 g/ha
  Plant response rating, Wheat: 3
Wild oat [2]; POSTEMERGENCE, Rate 10 g/ha
  Plant response rating, Wild oat: 4
Wild oat [2]; POSTEMERGENCE, Rate 50 g/ha
  Plant response rating, Wild oat: 7
Wild oat [2]; PREEMERGENCE, Rate 50 g/ha
  Plant response rating, Wild oat: 2
barnyardgrass; POSTEMERGENCE section, flood test, Rate 1 g/ha
  Plant response rating (0 to 100), Barnyardgrass 2: 0
barnyardgrass; POSTEMERGENCE section, flood test, Rate 4 g/ha
  Plant response rating (0 to 100), Barnyardgrass 2: 10
barnyardgrass; Rate 16 g/ha, under POSTEMERGENCE head (flood test species)
  Plant response rating (0 to 100), Barnyardgrass 2: 95
barnyardgrass; flood test species listed under POSTEMERGENCE, 62 g/ha, 0 to 100 scale
  Plant response rating Barnyardgrass 2: 100
blackgrass; POSTEMERGENCE, Rate 10 g/ha
  Plant response rating, Blackgrass: 5
blackgrass; POSTEMERGENCE, Rate 50 g/ha
  Plant response rating, Blackgrass: 6
blackgrass; PREEMERGENCE, Rate 10 g/ha
  Plant response rating, Blackgrass: 3
blackgrass; PREEMERGENCE, Rate 50 g/ha
  Plant response rating, Blackgrass: 3
Sorghum [3]; POSTEMERGENCE, Rate 10 g/ha
  Plant response rating, Sorghum: 3
Sorghum [3]; POSTEMERGENCE, Rate 50 g/ha
  Plant response rating, Sorghum: 3
Sorghum [3]; PREEMERGENCE, Rate 50 g/ha
  Plant response rating, Sorghum: 1
rape; POSTEMERGENCE
  Plant response rating, Rape: 100
rape; POSTEMERGENCE, Rate 1 g/ha
  Plant response rating (0 to 100), Rape: 50
rape; POSTEMERGENCE, Rate 4 g/ha
  Plant response rating (0 to 100), Rape: 50
rape; PREEMERGENCE
  Plant response rating, Rape: 10
rape; PREEMERGENCE, Rate 1 g/ha
  Plant response rating (0 to 100), Rape: 0
rape; PREEMERGENCE, Rate 4 g/ha
  Plant response rating (0 to 100), Rape: 0
rape; Rate 16 g/ha, POSTEMERGENCE
  Plant response rating (0 to 100), Rape: 100
rape; Rate 16 g/ha, PREEMERGENCE
  Plant response rating (0 to 100), Rape: 0
Sugar beet; POSTEMERGENCE, Rate 10 g/ha
  Plant response rating, Sugar beet: 10
Sugar beet; POSTEMERGENCE, Rate 50 g/ha
  Plant response rating, Sugar beet: 10
Sugar beet; PREEMERGENCE, Rate 50 g/ha
  Plant response rating, Sugar beet: 9
crabgrass; POSTEMERGENCE
  Plant response rating, Crabgrass: 50
crabgrass; POSTEMERGENCE, Rate 1 g/ha
  Plant response rating (0 to 100), Crabgrass: 10
crabgrass; POSTEMERGENCE, Rate 4 g/ha
  Plant response rating (0 to 100), Crabgrass: 20
crabgrass; PREEMERGENCE
  Plant response rating, Crabgrass: 50
crabgrass; PREEMERGENCE, Rate 1 g/ha
  Plant response rating (0 to 100), Crabgrass: 0
crabgrass; PREEMERGENCE, Rate 4 g/ha
  Plant response rating (0 to 100), Crabgrass: 0
crabgrass; Rate 16 g/ha, POSTEMERGENCE
  Plant response rating (0 to 100), Crabgrass: 30
crabgrass; Rate 16 g/ha, PREEMERGENCE
  Plant response rating (0 to 100), Crabgrass: 0
lambsquarters; POSTEMERGENCE, Rate 10 g/ha
  Plant response rating, Lambsquarter: 10
lambsquarters; POSTEMERGENCE, Rate 50 g/ha
  Plant response rating, Lambsquarter: 10
lambsquarters; PREEMERGENCE, Rate 50 g/ha
  Plant response rating, Lambsquarter: 10
Wheat [4]; [7]
  Plant response rating, Wheat: 60
Wheat [4]; POSTEMERGENCE, Rate 1 g/ha
  Plant response rating (0 to 100), Wheat: 20
Wheat [4]; POSTEMERGENCE, Rate 4 g/ha
  Plant response rating (0 to 100), Wheat: 40
Wheat [4]; PREEMERGENCE, Rate 1 g/ha
  Plant response rating (0 to 100), Wheat: 0
Wheat [4]; PREEMERGENCE, Rate 4 g/ha
  Plant response rating (0 to 100), Wheat: 0
Wheat [4]; Rate 16 g/ha, POSTEMERGENCE
  Plant response rating (0 to 100), Wheat: 60
Wheat [4]; Rate 16 g/ha, PREEMERGENCE
  Plant response rating (0 to 100), Wheat: 10
Wild oat [5]; [7]
  Plant response rating, Wild oat: 60
Wild oat [5]; POSTEMERGENCE, Rate 1 g/ha
  Plant response rating (0 to 100), Wild oat: 20
Wild oat [5]; POSTEMERGENCE, Rate 4 g/ha
  Plant response rating (0 to 100), Wild oat: 30
Wild oat [5]; PREEMERGENCE, Rate 1 g/ha
  Plant response rating (0 to 100), Wild oat: 0
Wild oat [5]; PREEMERGENCE, Rate 4 g/ha
  Plant response rating (0 to 100), Wild oat: 0
Wild oat [5]; Rate 16 g/ha, POSTEMERGENCE
  Plant response rating (0 to 100), Wild oat: 40
Wild oat [5]; Rate 16 g/ha, PREEMERGENCE
  Plant response rating (0 to 100), Wild oat: 10
ryegrass; POSTEMERGENCE
  Plant response rating Ryegrass: 60
ryegrass; POSTEMERGENCE, Rate 1 g/ha
  Plant response rating (0 to 100), Ryegrass: 10
ryegrass; POSTEMERGENCE, Rate 4 g/ha
  Plant response rating (0 to 100), Ryegrass: 30
ryegrass; PREEMERGENCE
  Plant response rating Ryegrass: 70
ryegrass; PREEMERGENCE, Rate 1 g/ha
  Plant response rating (0 to 100), Ryegrass: 0
ryegrass; PREEMERGENCE, Rate 4 g/ha
  Plant response rating (0 to 100), Ryegrass: 0
ryegrass; Rate 16 g/ha, POSTEMERGENCE
  Plant response rating (0 to 100), Ryegrass: 40
ryegrass; Rate 16 g/ha, PREEMERGENCE
  Plant response rating (0 to 100), Ryegrass: 30
Sorghum [6]; [7]
  Plant response rating, Sorghum: 60
Sorghum [6]; POSTEMERGENCE, Rate 1 g/ha
  Plant response rating (0 to 100), Sorghum: 20
Sorghum [6]; POSTEMERGENCE, Rate 4 g/ha
  Plant response rating (0 to 100), Sorghum: 40
Sorghum [6]; PREEMERGENCE, Rate 1 g/ha
  Plant response rating (0 to 100), Sorghum: 0
Sorghum [6]; PREEMERGENCE, Rate 4 g/ha
  Plant response rating (0 to 100), Sorghum: 0
Sorghum [6]; Rate 16 g/ha, POSTEMERGENCE
  Plant response rating (0 to 100), Sorghum: 50
Sorghum [6]; Rate 16 g/ha, PREEMERGENCE
  Plant response rating (0 to 100), Sorghum: 0
